Assays:
[1] = biological target: T1, human adenosine A1 receptor (Homo sapiens, UniProt P30542); assay: Inhibition binding assay, human adenosine A1 receptor membranes, [3H]DPCPX; conditions: 1 nM [3H]DPCPX, 25° C., 1 h; IC50 converted to Ki with Cheng-Prusoff; read-out: A1 pKi (converted)
T1 construct: expressed in transfected cells; host or cells: HEK293 cells infected with BacMam (the same paragraph also labels the preparation CHO-hA1)
T1 sequence (P30542 1-326): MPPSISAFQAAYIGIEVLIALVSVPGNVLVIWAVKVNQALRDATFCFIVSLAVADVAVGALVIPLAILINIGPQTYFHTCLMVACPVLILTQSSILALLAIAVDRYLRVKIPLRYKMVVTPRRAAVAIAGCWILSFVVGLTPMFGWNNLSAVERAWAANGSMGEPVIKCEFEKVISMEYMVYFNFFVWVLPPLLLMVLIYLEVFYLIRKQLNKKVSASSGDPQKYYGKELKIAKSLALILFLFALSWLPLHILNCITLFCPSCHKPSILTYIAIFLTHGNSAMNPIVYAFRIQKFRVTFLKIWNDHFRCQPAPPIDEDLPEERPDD
Procedure: (§1) Inhibition binding assays were performed using 0.2 μg of membranes prepared from HEK293 cells infected with BacMam human adenosine A2A receptor or 1.4 μg of membranes prepared from HEK293 cells infected with BacMam human adenosine A1 receptor. Membranes were incubated in 50 mM Tris-HCl (HEK293-hA2A; pH 7.4) or 50 mM Tris-HCl, 100 mM NaCl, 10 mM MgCl2 (CHO-hA1; pH 7.4) in the presence of varying concentrations of test compound and 1 nM [^3H]ZM241385 (HEK293-hA2A) or [^3H]DPCPX (CHO-hA1) at 25° C. for 1 h. The assay was then terminated by rapid filtration onto GF/B grade Unifilter plates using a TomTec cell harvester, followed by 5×0.5 ml washes with ddH2O. Nonspecific binding was defined in the presence of 1 μM CGS15943 (HEK293-hA2A) or 1 μM DPCPX (CHO-hA1). Bound radioactivity was determined by liquid scintillation counting and inhibition curves were analysed using a four-parameter logistic equation. IC50 values were converted to Ki values with the Cheng-Prusoff equation using a KD value derived from saturation binding studies.

[2] = biological target: T2, human adenosine A2A receptor (Homo sapiens, UniProt P29274); assay: Inhibition binding assay, human adenosine A2A receptor membranes, [3H]ZM241385; conditions: 1 nM [3H]ZM241385, HEK293-hA2A membranes, 25° C., 1 h; IC50 converted to Ki with Cheng-Prusoff; read-out: A2A pKi (converted)
T2 construct: expressed in transfected cells; host or cells: HEK293 cells infected with BacMam
Procedure: as §1

T2 sequence (P29274 whole entry): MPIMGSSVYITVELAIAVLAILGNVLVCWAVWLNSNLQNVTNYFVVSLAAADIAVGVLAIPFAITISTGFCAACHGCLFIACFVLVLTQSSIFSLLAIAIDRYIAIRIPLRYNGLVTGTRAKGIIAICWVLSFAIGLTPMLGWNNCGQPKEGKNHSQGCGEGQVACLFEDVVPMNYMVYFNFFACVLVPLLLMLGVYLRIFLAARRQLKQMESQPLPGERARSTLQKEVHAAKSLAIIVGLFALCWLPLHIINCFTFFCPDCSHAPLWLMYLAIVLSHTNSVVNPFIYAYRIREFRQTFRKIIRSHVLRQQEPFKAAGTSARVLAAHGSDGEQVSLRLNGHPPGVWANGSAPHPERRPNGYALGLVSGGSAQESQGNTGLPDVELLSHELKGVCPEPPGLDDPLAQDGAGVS

Row | Ki [1] [nM] | Ki [2] [nM] | SMILES
1 | > 3160 | 398 | CCC(c1ccc(F)cn1)n1nc2c(-c3cc(C)nc(CO)c3)c(-c3ccccc3)nc(N)n2c1=O (single isomer, unassigned) [1-46 iso-1, 5-amino-2-[1-(5-fluoro-2-pyridyl)propyl]-8-[2-(hydroxymethyl)-6-methyl-4-pyridyl]-7-phenyl-[1,2,4]triazolo[4,3-c]pyrimidin-3-one]
2 | > 2510 | 100 | CCC(c1ccc(F)cn1)n1nc2c(-c3cc(C)nc(CO)c3)c(-c3ccccc3)nc(N)n2c1=O (single isomer, unassigned) [1-46 iso-2, 5-amino-2-[1-(5-fluoro-2-pyridyl)propyl]-8-[2-(hydroxymethyl)-6-methyl-4-pyridyl]-7-phenyl-[1,2,4]triazolo[4,3-c]pyrimidin-3-one]
3 | > 2000 | 200 | CCC(c1ccc(F)cn1)n1nc2c(-c3cc(C)nc(C)c3)c(-c3ccccc3)nc(N)n2c1=O (single isomer, unassigned) [Example 1-38-iso-2, 5-amino-8-(2,6-dimethyl-4-pyridyl)-2-[1-(5-fluoro-2-pyridyl)propyl]-7-phenyl-[1,2,4]triazolo[4,3-c]pyrimidin-3-one]
4 | 158 | 2 | Cc1cc(-c2c(-c3ccccc3)nc(N)n3c(=O)n(CC4CCCOC4)nc23)cc(C)n1 (single isomer, unassigned) [Example 2-81-iso-1, 5-amino-8-(2,6-dimethyl-4-pyridyl)-7-phenyl-2-(tetrahydropyran-3-ylmethyl)-[1,2,4]triazolo[4,3-c]pyrimidin-3-one]
5 | 126 | 1 | Cc1cc(-c2c(-c3ccccc3)nc(N)n3c(=O)n(CC4CCCOC4)nc23)cc(C)n1 (single isomer, unassigned) [Example 2-81-iso-2, 5-amino-8-(2,6-dimethyl-4-pyridyl)-7-phenyl-2-(tetrahydropyran-3-ylmethyl)-[1,2,4]triazolo[4,3-c]pyrimidin-3-one]
6 | 126 | 1.58 | Cc1cc(-c2c(-c3ccccc3)nc(N)n3c(=O)n(CC4CCCCO4)nc23)cc(C)n1 (single isomer, unassigned) [Example 2-82-iso-1, 5-amino-8-(2,6-dimethyl-4-pyridyl)-7-phenyl-2-(tetrahydropyran-2-ylmethyl)-[1,2,4]triazolo[4,3-c]pyrimidin-3-one]
7 | 398 | 10 | Cc1cc(-c2c(-c3ccccc3)nc(N)n3c(=O)n(CC4CCCS(=O)(=O)C4)nc23)cc(C)n1 (single isomer, unassigned) [Example 2-89-iso-1, 5-amino-8-(2,6-dimethyl-4-pyridyl)-2-[(1,1-dioxothian-3-yl)methyl]-7-phenyl-[1,2,4]triazolo[4,3-c]pyrimidin-3-one]
8 | 316 | 25.1 | Cc1cc(-c2c(-c3ccccc3)nc(N)n3c(=O)n(CC4CCCS(=O)(=O)C4)nc23)cc(C)n1 (single isomer, unassigned) [Example 2-89-iso-2, 5-amino-8-(2,6-dimethyl-4-pyridyl)-2-[(1,1-dioxothian-3-yl)methyl]-7-phenyl-[1,2,4]triazolo[4,3-c]pyrimidin-3-one]
9 | 631 | 1.26 | Cc1cc(-c2c(-c3ccccc3)nc(N)n3c(=O)n(CC4CCCCO4)nc23)cc(CO)n1 (single isomer, unassigned) [Example 2-91-iso-1, 5-amino-8-[2-(hydroxymethyl)-6-methyl-4-pyridyl]-7-phenyl-2-(tetrahydropyran-2-ylmethyl)-[1,2,4]triazolo[4,3-c]pyrimidin-3-one]
10 | 251 | 1.58 | Cc1cc(-c2c(-c3ccccc3)nc(N)n3c(=O)n(CC4CCCCO4)nc23)cc(CO)n1 (single isomer, unassigned) [Example 2-91-iso-2, 5-amino-8-[2-(hydroxymethyl)-6-methyl-4-pyridyl]-7-phenyl-2-(tetrahydropyran-2-ylmethyl)-[1,2,4]triazolo[4,3-c]pyrimidin-3-one]
